# Measurements: publication PMC4368888, “Preclinical to Clinical Translation of CNS Transporter Occupancy of TD-9855, a Novel Norepinephrine and Serotonin Reuptake Inhibitor” (International Journal of Neuropsychopharmacology, 2015)
# Values joined by “and” are separate entries in the source; they are usually repeats but may differ in a detail not shown here. Equal entries are not always repeated.
# Legend:
# rat native NET = rat native NET (Rattus norvegicus, UniProt Q63380); test: [3H]-nisoxetine binding, rat cortical membranes; parameters: at human recombinant and rat native monoamine transporters; from tissue; conditions: mean (95% CI), 3 to 9 experiments, read-out: Transporter Binding: pKi NET (converted)
# Description: The in vitro pharmacology of TD-9855 (4-[2-(2, 4, 6-trifluorophenoxymethyl)phenyl]piperidine; Figure 1) at human recombinant and rat native monoamine transporters was characterized as described previously ([Tsuruda et al., 2010]; [Shen et al., 2013]). Radioligands were sourced commercially (Perkin Elmer Life Sciences or GE Healthcare Life Sciences). Briefly, membranes prepared from HEK293 (Human Embryonic Kidney 293) cells stably-transfected with human recombinant SERT (HEK293-hSERT), NET (HEK293-hNET), or DAT ([…]) were incubated for 1hr at 22°C in the absence, or presence, of TD-9855 and [^3H]-citalopram (1.0nM) for SERT, [^3H]-nisoxetine (2.0nM) for NET, and [^3H]-WIN35428 (3.0nM) for DAT in 50mM Tris-HCl, 120mM NaCl, 5mM KCl, 0.025% BSA, 100 μM ascorbic acid, pH 7.4. Rat cortical membrane preparations were incubated with [^3H]-citalopram (2.0nM) for SERT or [^3H]-nisoxetine (4.0nM) for NET for 1hr at 22°C. […] Binding and uptake assays were terminated by rapid filtration and radioactivity, determined by liquid scintillation spectroscopy.
# NET = NET (Homo sapiens, UniProt P23975); test: Human PET NET occupancy with [11C]-MRB; format: in vivo; parameters: from tissue; host or cells: brain of healthy male volunteers, in vivo PET
# Procedure: This was a Phase 1, open-label, single-dose study in healthy male volunteers to evaluate NET and SERT occupancy in the human brain after oral administration of TD-9855 using PET.
# The study was conducted at the Yale PET Center in accordance with the principles of the International Conference on Harmonisation’s Technical Requirements for Registration of Pharmaceuticals for Human Use Guideline for Good Clinical Practice. The protocol was approved by the Yale University Human Investigation Committee and the Yale–New Haven Hospital Radiation Safety Committee. SERT and NET occupancy were determined using the selective radiotracers [^11C]-DASB ([Meyer et al., 2004]; [Takano et al., 2006]; [Abanades et al., 2011]; [Nogami et al., 2013]) and [^11C]-MRB. Selection of the radiotracers and the dose of TD-9855 were flexible to minimize the number of PET scans.
# Eligible subjects were enrolled and received either [^11C]-MRB and/or [^11C]-DASB. Each subject underwent up to 5 PET scans over a period of up to 8 days. Multiple dose levels of TD-9855 (up to 20mg) were explored. All randomized subjects received the NET tracer (single-tracer evaluation) and some subjects (n = 3) received both the NET and SERT tracers sequentially (dual-tracer evaluation) in the baseline and post-dose period. […] In the dual-tracer evaluation, subjects completed sequential [^11C]-DASB and [^11C]-MRB baseline scans with each tracer, sequential post-dose scans with each tracer at 7–10hr post-dose, and one follow-up scan with [^11C]-MRB on or between Days 3 and 7.
# The injected dose of both tracers was typically 14–15 mCi, with mass doses less than 10 µg in all cases. PET images were acquired using the High Resolution Research Tomograph (HRRT; Siemens/CTI) with a reconstructed image resolution of approximately 3mm. Following a transmission scan, [^11C]-MRB or [^11C]-DASB was injected intravenously as a 1min bolus by an infusion pump. List-mode data were acquired for 120min. Head motion correction was performed using an optical tracking tool (Vicra, NDI Systems) and a rigid tool attached to a swim cap.
# The occipital cortex was selected as the reference region for [^11C]-MRB due to the low density of NET measured in vitro ([Schou et al., 2005]) and the absence of specific binding in a previous study ([Hannestad et al., 2010]). The regions of interest (ROIs) selected to assess [^11C]-MRB specific binding included one cortical region and the paracentral lobule, thalamus, hypothalamus, locus ceruleus, nucleus rubra, and raphe nucleus. The thalamus and cortical ROIs were delineated using the Automated Anatomical Labeling (AAL) template ([Tzourio-Mazoyer et al., 2002]). The hypothalamus, locus ceruleus, nucleus rubra, and raphe nucleus ROIs were drawn on the template MR image, based on the AAL template ([Hannestad et al., 2010]).
# For both studies, binding potentials (BP ND) were estimated using a method based on a reference region input curve. For [^11C]-MRB regional BP ND were computed using the multilinear reference tissue model 2 (MRTM2; [Ichise et al., 2003]). The suitability of MRTM2 to estimate [^11C]-MRB BP ND values was evaluated in a previous study ([Hannestad et al., 2010]), in which it was shown that MRTM2 BP ND estimates are highly correlated with BP ND estimated with arterial blood sampling and the multilinear analysis 1 (y = 0.909 x + 0.078, r^2 = 0.821, where x represents the MA1 BP ND values and y represents the MRTM2 BP ND values). BP ND values and their associated standard errors ( SEBPND ) for each ROI were then estimated by performing fits of the regional TACs. Data were fitted starting at time t* = 20min. For [^11C]-DASB, regional BP ND values were computed using simplified reference tissue model 2 (SRTM2; [Wu and Carson, 2002]). SRTM2 is similar to MRTM2, except that it uses the full data set, while MRTM2 uses the period of time t > t*. When applied to single-voxel TACs, these fits provided the BP ND images. […]
# [1] = 4 mg single oral dose, individual subjects, rApp ± SE
# [2] = 10 mg single oral dose, individual subject, rApp ± SE
# [3] = 20 mg single oral dose, individual subject, rApp ± SE
# [4] = 20 mg single oral dose, individual subjects, rApp ± SE
# NET, sequence (P23975 whole entry): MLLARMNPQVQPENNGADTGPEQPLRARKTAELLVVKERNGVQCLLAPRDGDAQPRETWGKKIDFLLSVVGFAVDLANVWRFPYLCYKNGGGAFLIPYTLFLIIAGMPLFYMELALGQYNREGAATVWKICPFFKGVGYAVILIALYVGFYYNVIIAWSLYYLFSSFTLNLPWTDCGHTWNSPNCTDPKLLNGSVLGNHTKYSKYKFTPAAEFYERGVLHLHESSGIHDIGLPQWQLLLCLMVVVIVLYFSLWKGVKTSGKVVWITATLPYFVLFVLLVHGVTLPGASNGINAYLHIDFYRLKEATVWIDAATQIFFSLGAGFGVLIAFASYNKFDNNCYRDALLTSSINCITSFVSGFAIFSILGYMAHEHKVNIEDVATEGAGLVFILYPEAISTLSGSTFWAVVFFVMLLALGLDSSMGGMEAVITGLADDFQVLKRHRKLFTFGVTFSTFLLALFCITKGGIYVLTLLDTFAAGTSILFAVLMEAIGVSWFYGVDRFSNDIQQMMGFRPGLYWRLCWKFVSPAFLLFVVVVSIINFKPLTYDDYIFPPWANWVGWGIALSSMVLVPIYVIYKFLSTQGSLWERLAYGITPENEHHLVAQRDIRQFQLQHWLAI
# rat native NET, sequence (Q63380 1-617): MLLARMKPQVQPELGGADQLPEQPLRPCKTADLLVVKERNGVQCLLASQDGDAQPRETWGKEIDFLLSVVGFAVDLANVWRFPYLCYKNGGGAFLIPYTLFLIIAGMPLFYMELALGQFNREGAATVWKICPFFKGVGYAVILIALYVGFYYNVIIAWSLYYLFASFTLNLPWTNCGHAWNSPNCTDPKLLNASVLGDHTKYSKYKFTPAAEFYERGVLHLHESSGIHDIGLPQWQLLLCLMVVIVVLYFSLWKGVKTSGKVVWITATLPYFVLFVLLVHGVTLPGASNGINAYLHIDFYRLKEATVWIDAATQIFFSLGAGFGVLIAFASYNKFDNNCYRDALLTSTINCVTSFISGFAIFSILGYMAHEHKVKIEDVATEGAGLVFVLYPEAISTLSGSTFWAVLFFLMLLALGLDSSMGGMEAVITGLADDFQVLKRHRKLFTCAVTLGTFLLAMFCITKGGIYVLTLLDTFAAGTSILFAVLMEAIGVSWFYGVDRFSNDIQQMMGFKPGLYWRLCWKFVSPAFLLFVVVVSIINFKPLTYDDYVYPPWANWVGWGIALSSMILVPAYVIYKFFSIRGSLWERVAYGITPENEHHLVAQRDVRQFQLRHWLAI
structure (smiles),measurement,setting,value
"Fc1cc(F)c(OCc2ccccc2C2CCNCC2)c(F)c1 [TD-9855, 4-[2-(2,4,6-trifluorophenoxymethyl)phenyl]piperidine]",Ki,rat native NET,2 nM
same,Apparent NET Occupancy Day 7,"NET; 4 mg single oral dose, individual subject, rApp ± SE",3.2±7.8%
same,Apparent NET Occupancy Day 1,NET; [1],57.9±4.7% and 58.7±5.5% and 42.2±6.4%
same,Apparent NET Occupancy Day 3,NET; [1],57.3±3.8% and 47.2±6.0% and 29.6±7.1%
same,Apparent NET Occupancy Day 1,NET; [2],110.3±7.4%
same,Apparent NET Occupancy Day 3,NET; [2],92.0±10.8%
same,Apparent NET Occupancy Day 6,NET; [3],62.9±5.0%
same,Apparent NET Occupancy Day 7,NET; [3],2.6±11.6%
same,Apparent NET Occupancy Day 1,NET; [4],120.3±6.2% and 98.4±4.7% and 119.1±8.3% and 121.2±4.5%
same,Apparent NET Occupancy Day 3,NET; [4],96.2±10.2% and 124.3±4.9%
same,EC50,"NET; human brain PET, single oral 4-20mg, fit ± standard error, read-out: plasma EC50 for NET occupancy (converted)",3.77 nM
